Test results published in ChEMBL document CHEMBL3352309, “Three types of cytotoxic natural caged-scaffolds: pure enantiomers or partial racemates” (J Nat Prod, 2014).
Converted amounts (≈) assume the structure as drawn.

test system: MCF7; assay: Cytotoxicity against human MCF7 cells after 72 hrs by sulforhodamine B assay; type: functional, cell-based; settings: MCF7, 72 h

Row | Compound | IC50
1 | CC[C@@]1(O)C(=O)OCc2c1cc1n(c2=O)Cc2cc3ccccc3nc2-1 [CAMPTOTHECIN] | < 0.024 µg/mL
2 | CO[C@]12C=C3C(=O)c4c(O)cccc4O[C@@]34[C@@H](C1)C(C)(C)O[C@]4(CC=C(C)C)C2=O (racemic) | 0.36 µg/mL (≈ 0.877 µM)
3 | COC(=O)[C@@]1(CC=C(C)C)OC(C)(C)[C@@H]2CC(=O)C=C3C(=O)c4c(O)cccc4O[C@]321 (racemic) | > 5 µg/mL
4 | CO[C@]12C=C3C(=O)c4c(O)cccc4O[C@@]34C[C@@H]1C(C)(C)O[C@]2(CC=C(C)C)C4=O (racemic) | > 5 µg/mL
